Test results from article PMC11842588, “A first-in-class selective inhibitor of ERK1/2 and ERK5 overcomes drug resistance with a single-molecule strategy” (Signal Transduction and Targeted Therapy, 2025).

Key:
ERK2 = ERK2 (Homo sapiens, UniProt P28482); assay: ADP-Glo kinase assay; type: biochemical
Method: (§1) The full-length human ERK1 or ERK2 with His-tag was cloned into a pET28a vector. hERK1/2 were expressed in Escherichia coli BL21(DE3), and then were purified using sequential Ni-NTA and Superdex 200 column steps. The SEC purified sample was then concentrated to 10 mg/ml and stored at −80 °C with buffer containing 20 mM HEPES pH 7.5, 150 mM NaCl. ERK5 (residues 48–395) containing His and GST tags was cloned into the pFastBac vector, and the recombinant plasmid was extracted. The recombinant plasmid was transformed into the DH10bac strain, and monoclonal was selected for culture. The recombinant Bacmid was then extracted according to the instructions of the Baculovirus Shuttle Vector Bacmid Mini Preparation Kit (Beyotime) and validated by PCR. 1 × 10^6/well Sf9 cells were counted for transfection and then amplified to obtain P3 ERK5 recombinant baculovirus. It was added to 2 × 10^6/mL Sf9 cells and incubated at 27 °C for 72 h on a shaker to express ERK5. Cells were lysed and supernatant was collected on a Ni-NTA for purification, and a 250 mM imidazole eluate was collected. Next, digestion by TEV protease was performed overnight while dialysis was performed in approximately 1000 mL of imidazole-free buffer. The digested ERK5 protein was sequentially purified on the Ni-NTA and GST-tag Purification Resin, followed by size exclusion chromatography on a Superdex 75 column. ERK5 protein was collected and concentrated to 12 mg/ml and stored at −80 °C in buffer containing 50 mM HEPES pH 8.0, 200 mM NaCl, 10% (v/v) glycerol.
(§2) ERK1/2/5 kinase activity assay was conducted using ADP-Glo™ Kinase Assay. 2× ATP solution and 2× kinase & Metal solution were prepared using assay buffer were prepared using assay buffer containing 50 mM Hepes pH 7.5, 10 mM MgCl2; 0.01% Brij35, 1 mM EGTA, 2 mM DTT. Transfer 40 nL compounds to 384 assay plate. Add 2 μL of 2× kinase & Metal solution were mixed and incubated in a 384-assay plate for 10 min at 25 °C. 2 μL of 2×ATP solution was added and incubated at 25 °C for 60 min. And then, each well was supplemented with 4 µL of ADP-Glo^TM reagent and incubated at 25 °C for 40 min. Subsequently, 8 µL of Kinase Detection Reagent was added and incubated at 25 °C for 40 min. Finally, the luminescence signals were recorded. The IC50 values were calculated using GraphPad Prism 9.5 software.

ERK1 = ERK1 (Homo sapiens, UniProt P27361); assay: ADP-Glo kinase assay; type: biochemical
Method: as §1, §2

ERK5 = ERK5 (Homo sapiens, UniProt Q13164); assay: ADP-Glo kinase assay; type: biochemical
Method: as §1, §2

MDA-MB-231 cells = assay: MTT cell viability assay; type: cell-based
Method: (§3) MDA-MB-468 and MDA-MB-436 cells were cultured in Leibovitz’s L-15 medium supplemented with 10% fetal bovine serum. […] All of the cells were cultured at 37 °C in a humidified atmosphere containing 5% CO2.
(§4) Cancer cells were seeded in a density in 96-well plates (2 × 10^3 cells per well). After incubation for 24 h, cancer cells were treated with compounds (0–20 μM) for 72 h.

MDA-MB-468 cells = assay: MTT cell viability assay; type: cell-based
Method: as §3, §4

MDA-MB-231 xenograft = MDA-MB-231 xenograft tumor growth inhibition; type: in vivo, nude mice (BALB/c-nu); settings: 50 mg/kg (each drug), intragastric once daily, 16 days, by tumor weight
Method: All procedures were performed in accordance with the Laboratory Animals Welfare Act, the Guide for the Care and Use of Laboratory Animals and the Guidelines and Policies. The rodent experiment was approved by IACUC (Institutional Animal Care and Use Committee) in the Experimental Animal Ethics Committee of West China Hospital (Approval No. 2021672A). 48 female nude mice (BALB/c-nu, 5 weeks, 15–18 g, purchased from Beijing HFK Bio-Technology Co., LTD) were acclimatized for one week in an SPF-grade animal facility (ventilated, 20–25 °C, 50–60% humidity). […] When the tumor volume reached approximately 100 mm^3 (V = L × W^2/2), the mice were randomly divided into six groups (n = 8 per group): (1) Control group (normal saline); (2) 25 mg/kg SKLB-D18-treated group; (3) 50 mg/kg SKLB-D18-treated group; (4) 50 mg/kg BVD-523-treated group; (5) 50 mg/kg XMD8-92-treated group; (6) BVD-523 (50 mg/kg) and XMD8-92 (50 mg/kg) combined treatment group. Drugs were freshly prepared with 5% DMSO, 10% Solutol HS-15, and 85% normal saline on the day of administration. Intragastric administration occurred once daily at the same time for 16 consecutive days. And the body weight and tumor volume of mice were measured every three days. After the administration period, all nude mice were euthanized by cervical dislocation the next day. Tumors and vital organs (heart, liver, spleen, lung, kidney) were dissected, and tumors were weighed, then immediately fixed in 4% paraformaldehyde or stored in −80 °C.

ERK2, sequence (P28482 whole entry, the tested form may be a part): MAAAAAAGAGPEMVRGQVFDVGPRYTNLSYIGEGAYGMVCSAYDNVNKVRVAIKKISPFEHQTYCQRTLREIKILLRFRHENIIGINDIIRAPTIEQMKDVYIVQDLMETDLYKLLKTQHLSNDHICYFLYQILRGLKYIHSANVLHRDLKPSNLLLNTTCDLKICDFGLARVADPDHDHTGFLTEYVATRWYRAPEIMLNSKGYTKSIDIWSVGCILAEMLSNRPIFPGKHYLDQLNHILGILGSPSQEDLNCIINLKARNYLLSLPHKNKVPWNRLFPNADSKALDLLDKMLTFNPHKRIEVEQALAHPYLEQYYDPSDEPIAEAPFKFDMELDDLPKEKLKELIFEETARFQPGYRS
ERK5, sequence (Q13164 whole entry): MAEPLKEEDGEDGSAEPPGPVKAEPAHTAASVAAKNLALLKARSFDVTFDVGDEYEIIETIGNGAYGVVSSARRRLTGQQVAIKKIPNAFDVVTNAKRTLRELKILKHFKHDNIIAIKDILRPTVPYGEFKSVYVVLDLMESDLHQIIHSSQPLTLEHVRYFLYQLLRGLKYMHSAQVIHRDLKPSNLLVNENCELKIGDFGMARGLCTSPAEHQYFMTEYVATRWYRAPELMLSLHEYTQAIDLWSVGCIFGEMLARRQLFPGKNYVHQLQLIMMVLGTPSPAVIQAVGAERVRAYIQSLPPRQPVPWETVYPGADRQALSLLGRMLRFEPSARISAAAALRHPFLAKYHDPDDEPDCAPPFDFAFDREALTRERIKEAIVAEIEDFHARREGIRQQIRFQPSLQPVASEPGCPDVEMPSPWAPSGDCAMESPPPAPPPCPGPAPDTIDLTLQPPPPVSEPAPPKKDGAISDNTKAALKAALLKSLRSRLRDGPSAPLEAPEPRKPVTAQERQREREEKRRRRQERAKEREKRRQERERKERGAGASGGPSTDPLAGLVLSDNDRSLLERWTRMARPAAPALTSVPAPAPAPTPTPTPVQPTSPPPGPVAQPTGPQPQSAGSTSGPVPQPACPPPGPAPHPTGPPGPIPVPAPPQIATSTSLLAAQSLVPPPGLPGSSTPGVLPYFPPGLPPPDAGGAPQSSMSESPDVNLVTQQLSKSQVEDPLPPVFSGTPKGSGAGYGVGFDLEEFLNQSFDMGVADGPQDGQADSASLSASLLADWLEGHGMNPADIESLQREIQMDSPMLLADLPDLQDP
ERK1, sequence (P27361 whole entry): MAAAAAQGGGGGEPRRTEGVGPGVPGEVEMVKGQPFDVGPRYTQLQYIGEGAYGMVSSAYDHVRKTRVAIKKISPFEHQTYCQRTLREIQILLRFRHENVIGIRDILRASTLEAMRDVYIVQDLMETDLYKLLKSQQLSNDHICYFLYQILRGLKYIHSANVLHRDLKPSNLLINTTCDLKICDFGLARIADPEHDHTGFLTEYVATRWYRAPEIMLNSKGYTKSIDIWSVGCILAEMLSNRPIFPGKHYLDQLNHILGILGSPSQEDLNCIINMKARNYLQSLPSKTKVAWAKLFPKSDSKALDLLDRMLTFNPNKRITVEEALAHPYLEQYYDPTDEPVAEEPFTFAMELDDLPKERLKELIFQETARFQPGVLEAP

Compound	Enzyme inhibitory activity (500 nM, %) ERK2 (ERK2)	Enzyme inhibitory activity (500 nM, %) ERK1 (ERK1)	Enzyme inhibitory activity (500 nM, %) ERK5 (ERK5)	inhibition at 0.5 µM (ERK2; read-out: Enzyme inhibitory activity (500 nM, %) ERK2)	inhibition at 0.5 µM (ERK1; read-out: Enzyme inhibitory activity (500 nM, %) ERK1)	inhibition at 0.5 µM (ERK5; read-out: Enzyme inhibitory activity (500 nM, %) ERK5)	IC50 (MDA-MB-231 cells; Homo sapiens, MDA-MB-231, read-out: IC50 MDA-MB-231, MTT, 72 h)	IC50 (MDA-MB-468 cells; Homo sapiens, MDA-MB-468, MTT, 72 h)	Anti-proliferative activity (10 μM, %) MDA-MB-231 (MDA-MB-231 cells)	Anti-proliferative activity (10 μM, %) MDA-MB-468 (MDA-MB-468 cells)	tumor inhibition rate (MDA-MB-231 xenograft)
COc1ccc(NC(=O)c2cc(-c3nc(Nc4c(C)nn(C)c4C)ncc3Cl)cs2)cc1 [9d, 4-(5-chloro-2-((1,3,5-trimethyl-1H-pyrazol-4-yl)amino)pyrimidin-4-yl)-N-(4-methoxyphenyl)thio-phene-2-carboxamide]	43.22 ± 0.23%	45.29 ± 1.30%	23.12 ± 3.21%						7.54 ± 1.23%	24.33 ± 0.84%	
COc1ccc(NC(=O)c2cc(-c3nc(Nc4ccccc4)ncc3Cl)cs2)cc1 [9e]	76.45 ± 0.01%	77.32 ± 2.34%	45.32 ± 0.09%						23.33 ± 0.56%	25.10 ± 1.53%	
COc1ccc(NC(=O)c2cc(-c3nc(Nc4cccc(N(C)C)c4)ncc3Cl)cs2)cc1 [9h]	78.90 ± 2.31%	77.02 ± 3.21%	65.54 ± 0.88%						11.21 ± 0.47%	20.15 ± 0.77%	
CCOc1cc(N2CCC(O)CC2)ccc1Nc1ncc2c(n1)N(C)c1ccccc1C(=O)N2C [XMD8-92]											7.75%

Further lines, with some results ahead:

Enzyme inhibitory activity (500 nM, %) ERK2 (ERK2)	Enzyme inhibitory activity (500 nM, %) ERK1 (ERK1)	Enzyme inhibitory activity (500 nM, %) ERK5 (ERK5)	inhibition at 0.5 µM (ERK2; read-out: Enzyme inhibitory activity (500 nM, %) ERK2)	inhibition at 0.5 µM (ERK1; read-out: Enzyme inhibitory activity (500 nM, %) ERK1)	inhibition at 0.5 µM (ERK5; read-out: Enzyme inhibitory activity (500 nM, %) ERK5)	IC50 (MDA-MB-231 cells; Homo sapiens, MDA-MB-231, read-out: IC50 MDA-MB-231, MTT, 72 h)	IC50 (MDA-MB-468 cells; Homo sapiens, MDA-MB-468, MTT, 72 h)	Compound	Anti-proliferative activity (10 μM, %) MDA-MB-231 (MDA-MB-231 cells)	Anti-proliferative activity (10 μM, %) MDA-MB-468 (MDA-MB-468 cells)	tumor inhibition rate (MDA-MB-231 xenograft)
-1.29 ± 0.02%	2.13 ± 1.56%	71.14 ± 0.43%						CN(C)Cc1cccc(Nc2ncc(Cl)c(-c3csc(C(=O)Nc4ccncn4)c3)n2)c1 [18i]	41.35 ± 1.20%	30.29 ± 0.83%	
			5.97 ± 1.02%	7.98 ± 0.6%	81.8 ± 2.1%			Cc1cc(NC(=O)c2cc(-c3nc(Nc4cccc(CN(C)C)c4)ncc3Cl)cs2)ccn1 [18j, 4-(5-chloro-2-((3-((dimethylamino)methyl)phenyl)amino)pyrimidin-4-yl)-N-(2-methylpyridin-4-yl)thiophene-2-carboxamide]	39.25 ± 0.21%	59.17 ± 2.12%	
43.61 ± 1.45%	45.23 ± 2.12%	86.64 ± 0.89%						CN(C)Cc1cccc(Nc2ncc(Cl)c(-c3csc(C(=O)Nc4ccnn4C)c3)n2)c1 [18k]	39.77 ± 0.31%	-3.93 ± 1.21%	
91.03 ± 1.23%	90.27 ± 1.78%	79.74 ± 0.07%						CN(C)Cc1cccc(Nc2ncc(Cl)c(-c3csc(C(=O)NN4CCN(C)CC4)c3)n2)c1 [18n]	54.82 ± 1.21%	86.37 ± 0.43%	
						6.47 ± 0.19 µM	5.26 ± 0.66 µM	CC(C)Nc1cc(-c2c[nH]c(C(=O)N[C@H](CO)c3cccc(Cl)c3)c2)c(Cl)cn1 [BVD-523, reference compound]			36.01%
